Assay results: patent US9642858B2, “Use of resazurin, or analogs thereof, for antibacterial therapy” (priority 2012, dated 2017)
≈ marks a conversion by molar mass, not a printed value. Entries after “also recorded” stand apart in the source; their conditions may differ.

Assays:
[1] = test system: type A F. tularensis (Schu S4); format: cell-based, Francisella tularensis; details: 44 μM
[2] = test system: N. gonorrhoeae; format: cell-based, Neisseria gonorrhoeae; details: 44 μM
[3] = test system: F. tularensis LVS; test: microbe, parasite or virus in culture; format: cell-based, Francisella tularensis
[4] = test system: Escherichia coli; format: cell-based; details: 44 μM
[5] = test system: Pseudomonas aeruginosa; format: cell-based; details: 44 μM
[6] = test system: F. tularensis LVS in HEK-293 cells; format: cell-based, Francisella tularensis
[7] = test system: F. tularensis LVS in primary human macrophages; format: cell-based, Francisella tularensis
[8] = test system: N. polysaccharea; format: cell-based, Neisseria polysaccharea
[9] = test system: N. sicca; format: cell-based, Neisseria sicca
[10] = test system: F. novicida; format: cell-based, Francisella novicida
[11] = test system: primary human macrophages; test: Viability of infected macrophages treated with resazurin (visible reduction of resazurin to resorufin)

With `O=c1ccc2[n+]([O-])c3ccc(O)cc3oc-2c1` [resazurin, 7-Hydroxy-3H-phenoxazin-3-one 10-oxide] the “bactericidal effect on chocolate II agar” value [1] was “potent bactericidal effect”, the “bactericidal effect on chocolate II agar” value [2] was “potent bactericidal effect” and the F. tularensis growth [3] was “growth is inhibited”. For the same molecule, the “antibacterial activity (viable bacteria per ml)” value [3] was “have antibacterial activity”, the “antimicrobial activity, effect of medium” value [3] was “not affected by the choice of medium” and the “bacterial viability over time” value [3] was “significant decline in viable bacteria”. For the same molecule, the “bactericidal activity to F. tularensis” value [3] was “bactericidal”, the “reduction in viable F. tularensis LVS bacteria compared to growth medium alone” value [3] was roughly 10 fold and the viable bacteria [3] was “decrease in viable bacteria”. For the same molecule, the MIC ([3]; Francisella tularensis, read-out: minimal inhibitory concentration against F. tularensis) was 4.4 µM (≈ 1.01 µg/mL), the “bacterial viability / antimicrobial effect” value [4] was “does not have an antimicrobial effect; also recorded: no effect on bacterial viability” and the “bacterial viability / antimicrobial effect” value [5] was “does not have an antimicrobial effect; also recorded: no effect on bacterial viability”. For the same molecule, the “intracellular growth / bacterial burden” value [6] was “inhibited intracellular growth; also recorded: reduces bacterial burden”, the “viable intracellular bacteria compared to the control” value [6] was “substantial decrease in viable bacteria” and the “intracellular growth / bacterial burden” value [7] was “inhibited intracellular growth; also recorded: reduces bacterial burden”. For the same molecule, the viable intracellular bacteria [7] was “substantial decrease in viable bacteria”, the bactericidal activity [8] was “bactericidal” and the bactericidal activity [9] was “bactericidal”. For the same molecule, the bactericidal activity [10] was “bactericidal” and the “viability of macrophages (toxicity)” value [11] was “still viable”.

For `O=c1ccc2nc3ccc(O)cc3oc-2c1` [resorufin], the “antibacterial activity (viable bacteria per ml)” value [3] was “have antibacterial activity”, the “antimicrobial effect on F. tularensis LVS viability (CFU) relative to resazurin” value [3] was “equivalently potent antimicrobial effect” and the “bactericidal activity to F. tularensis” value [3] was “bactericidal”.
